We go through 13 molecules from US11332470B2, “CXCR4 inhibitors and uses thereof” (X4 Pharmaceuticals, Inc., priority 2016, dated 2022).

One data set concerns the target T1, CXCR4 (U87.CXCR4 cells) (Homo sapiens, UniProt P61073).
T1 construct: expressed in transfected cells; host or cells: U87 (U87.CXCR4)
In words: Intracellular CXCL-12-induced calcium mobilization assay (FLIPR). In kind it is cell-based. As to conditions: CXCL-12 25-50 ng/mL, read-out: IC50 CXCL-12 Ca2+ flux U87.CXCR4+. The method, then: Intracellular CXCL-12-Induced Calcium Mobilization Assay
Intracellular calcium mobilization induced by chemokines or chemokine-derived peptides were evaluated using a calcium responsive fluorescent probe and a FLIPR system. The CXCR-4 transfected U87 cell line (U87.CXCR4) cells were seeded in gelatine-coated black-wall 96-well plates at 20,000 cells per well and incubated for 12 hours. Cells were then loaded with the fluorescent calcium probe Fluo-2 acetoxymethyl at 4 μM final concentration in assay buffer (Hanks' balanced salt solution with 20 mM HEPES buffer and 0.2% bovine serum albumin, pH 7.4) for 45 min at 37° C. The intracellular calcium mobilization induced by the CXCL-12 (25-50 ng/mL) was then measured at 37° C. by monitoring the fluorescence as a function of time in all the wells simultaneously using a fluorometric imaging plate reader (FLIPR Tetra, Molecular Devices).
A general note: Calcium assays in cells follow changes in intracellular calcium, usually with a dye or a luminescent sensor.

In data set [1] the target is T2, CXCR4 (Jurkat cells expressing CXCR4) (Homo sapiens, UniProt P61073).
T2 construct: Jurkat cells expressing CXCR4; endogenous in cells; host or cells: Jurkat
T2 sequence (P61073 whole entry): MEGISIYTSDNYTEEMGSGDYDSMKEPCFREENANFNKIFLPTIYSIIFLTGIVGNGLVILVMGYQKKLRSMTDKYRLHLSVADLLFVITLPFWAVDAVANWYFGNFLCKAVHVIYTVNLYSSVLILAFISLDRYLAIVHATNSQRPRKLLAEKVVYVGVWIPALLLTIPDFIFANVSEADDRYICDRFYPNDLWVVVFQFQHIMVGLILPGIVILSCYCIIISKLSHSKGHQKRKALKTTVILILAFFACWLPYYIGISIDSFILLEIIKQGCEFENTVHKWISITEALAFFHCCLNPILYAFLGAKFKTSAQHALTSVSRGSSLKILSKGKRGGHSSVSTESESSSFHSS
In words: Chemokine (CXCL12-AF647) binding inhibition assay. The conditions noted are these: CXCL12-AF647 25 ng/mL, read-out: IC50 CXCL-12 binding Jurkat. On the procedure:
Chemokine (CXCL12-AF647) Binding Inhibition Assay
Jurkat cells expressing CXCR4 were washed once with assay buffer (Hanks' balanced salt solution with 20 mM HEPES buffer and 0.2% bovine serum albumin, pH 7.4) and then incubated for 15 min at room temperature with the test compounds diluted in assay buffer at dose-dependent concentrations. Subsequently, CXCL12-AF647 (25 ng/mL) was added to the compound-incubated cells. The cells were incubated for 30 min at room temperature. Thereafter, the cells were washed twice in assay buffer, fixed in 1% paraformaldehyde in PBS, and analyzed on the FL4 channel of a FACSCalibur flow cytometer equipped with a 635-nm red diode laser (Becton Dickinson, San Jose, Calif., USA).
The percentages of inhibition of CXCL12-AF647 binding were calculated according to the formula: [1−((MFI−MFINC)/(MFIPC−MFINC))]×100 where MFI is the mean fluorescence intensity of the cells incubated with CXCL12-AF647 in the presence of the inhibitor, MFINC is the mean fluorescence intensity measured in the negative control (i.e., autofluorescence of unlabeled cells), and MFIPC is the mean fluorescence intensity of the positive control (i.e., cells exposed to CXCL12-AF647 alone).

A short description of the next data set: in vitro. As to conditions: human, Caco-2, pH 7.4. On the procedure: The goal of this assay was to evaluate the intestinal absorption potential of drug candidates using Caco-2 cell lines.
1. Prewarm Prewarm HBSS Buffer in 37° C. water bath
2. Sonicate Take compounds from −20° C., sonicate for a few minutes (no less than 1 minute)
• Donor solution buffer: For A-to-B Direction: HBSS buffer with 0.3% DMSO and 5 μM LY: add 150 μL DMSO and 50 μL LY (5 mM) into 50 ml HBSS buffer (pH 7.4). HBSS buffer with 0.1% DMSO and 5 μM LY: add 50 μL DMSO and 50 μL LY (5 mM) into 50 mL HBSS buffer (pH 7.4). For B-to-A Direction: HBSS buffer with 0.3% DMSO: add 150 μL DMSO into 50 ml HBSS buffer (pH 7.4). HBSS buffer with 0.1% DMSO: add 50 μL DMSO into 50 ml HBSS buffer (pH 7.4). Receiver Solution Buffer: For A-to-B Direction: Prepare HBSS buffer with 0.4% DMSO: add 200 μL DMSO into 50 ml HBSS buffer (pH 7.4). For B-to-A Direction: Prepare HBSS buffer with 0.4% DMSO and 5 μM LY: add 200 μL DMSO and 50 μL LY (5 mM) into 50 ml HBSS buffer (pH 7.4).
4. Measure TEER Take cell culture plate out of incubator, wash the cell monolayers with HBSS buffer, and then measure TEER values at Rm temperature. 5. Centrifuge Centrifuge the compound solution (from step 3) at 4000 rpm for 5 min before loading to donor chambers. 6. Dosing Add solution based on the volumes listed in the following table (make sure to take extra 100 μL of donor sample for TO as Backup).
7. Apical LYT0 samples To determine LY concentration in the apical chamber, take 100 μL sample from apical chambers into an opaque plate for LYT0. 8. Prewarm Prewarm apical and basolateral plates at 37° C. for about 5 min, then begin transport by placing the apical plate onto basolateral plate. 9. Incubation Keep the plates in incubator at 37° C. for 90 min. 10.
Prepare Working Solution in MeOH/H2O (1:1)
• Prepare 1×solution: 3 μL (20×)+57 μL of 0.4% DMSO HBSS+60 μL ACN with IS (Osalmid or Imipramine)−120 μL (1×) 11. Transport termination Separate the apical plate from the basolateral plate after 90-min incubation. 12. Measure LY Take 100 μL samples from basolateral plate to an opaque plate as LYT90. 13. Measure LY concentrations for LYT0 and LYT90 by Fluorometer (at excitation of 485 nm/emission of 535 nm). 14.
Study details: Test concentration 10 μM
Test systems: Caco-2/HBSS solution
Incubation conditions: 0, 90 min at 37° C.
Sample size: Duplicates (n=2)
Bioanalytical method: LC-MS/MS
For Millicell-24 Cell Culture Plates: surface area of the membrane=0.7 cm^2, VA=0.8 mL (A-to-B) or 0.4 mL (B-to-A)
The compound numbers correspond to the compound numbers in Table 1.

T1 sequence (P61073 whole entry): as above

As to `CN1CCN(c2cccc3nc(CN4CCCC4c4ccccn4)[nH]c23)CC1` (centres unmarked) [Compound I-44], on CXCR4 (U87.CXCR4 cells), the IC50 (usually the concentration that inhibits the measured activity by half) lay in the range of 100 to 1000 nM. Further, the IC50 in data set [1] was 0.01 to 100 nM. Further, in “in vitro”, the Papp A→B (in general, how fast a substance crosses the layer from the apical side) at 90 min, 10 μM was 10 to 30 ×10⁻⁶ cm/s; the Papp B→A (usually how fast a substance crosses the layer from the basolateral side) at 90 min, 10 μM was above 30 ×10⁻⁶ cm/s; the efflux ratio – broadly, a quotient of directional permeabilities that is used to spot active efflux – at 90 min, 10 μM lay in the range of 0.1 to 10.

For `Cc1cccnc1C1CCCN1Cc1nc2cccc(N3CCN(C)CC3)n2c1C` (centres unmarked) [Compound I-46], on CXCR4 (U87.CXCR4 cells), the IC50 fell in the range of 100 to 1000 nM. Also, the IC50 in data set [1] lay within 0.01 to 100 nM. For the same molecule, in “in vitro”, the Papp A→B at 90 min, 10 μM fell in the range of 0.1 to 10 ×10⁻⁶ cm/s; the Papp B→A at 90 min, 10 μM lay in the range of 10 to 30 ×10⁻⁶ cm/s; the efflux ratio at 90 min, 10 μM was above 30.

With `Cc1c(CN2CCCC2c2ncccc2Cl)nc2cccc(N3CCN(C)CC3)n12` (centres unmarked) [Compound I-47], the IC50 at CXCR4 (U87.CXCR4 cells) was 100 to 1000 nM. Further, the IC50 in data set [1] lay in the range of 0.01 to 100 nM. Besides, in the data set “in vitro”, the Papp A→B at 90 min, 10 μM lay within 0.1 to 10 ×10⁻⁶ cm/s; the Papp B→A at 90 min, 10 μM was 10 to 30 ×10⁻⁶ cm/s; the efflux ratio at 90 min, 10 μM lay in the range of 0.1 to 10.

With `Cc1cccnc1C1CCCN1Cc1nc2cccc(N3CCN4CCCC4C3)c2[nH]1` (centres unmarked) [Compound I-48], the IC50 on CXCR4 (U87.CXCR4 cells) was in the range of 0.01 to 100 nM. Also, the IC50 in data set [1] lay within 0.01 to 100 nM. Further, in “in vitro”, the Papp A→B at 90 min, 10 μM was in the range of 0.1 to 10 ×10⁻⁶ cm/s; the Papp B→A at 90 min, 10 μM was 10 to 30 ×10⁻⁶ cm/s; the efflux ratio at 90 min, 10 μM lay within 0.1 to 10.

Regarding `CN1CCN(c2cccc3nc(CN4CCCC4c4nccs4)[nH]c23)CC1` (centres unmarked) [Compound I-49], the IC50 on CXCR4 (U87.CXCR4 cells) is at least 1000 nM. For the same molecule, the IC50 in data set [1] was at least 1000 nM. Moreover, in the data set “in vitro”, the Papp A→B at 90 min, 10 μM lay within 10 to 30 ×10⁻⁶ cm/s; the Papp B→A at 90 min, 10 μM was in the range of 10 to 30 ×10⁻⁶ cm/s; the efflux ratio at 90 min, 10 μM lay in the range of 0.1 to 10.

Turning to `CN1CCN(c2cccc3nc(CN4CCCC4c4ncc[nH]4)cn23)CC1` (centres unmarked) [Compound I-50], the IC50 at CXCR4 (U87.CXCR4 cells) was at least 1000 nM. Besides, the IC50 in data set [1] is at least 1000 nM. For the same molecule, in the data set “in vitro”, the Papp A→B at 90 min, 10 μM fell in the range of 0.1 to 10 ×10⁻⁶ cm/s; the Papp B→A at 90 min, 10 μM fell in the range of 10 to 30 ×10⁻⁶ cm/s; the efflux ratio at 90 min, 10 μM is 0.1 to 10.

With `CN1CCN(c2cccc3[nH]c(CN4CCCC4c4nccn4C)nc23)CC1` (centres unmarked) [Compound I-51], the IC50 on CXCR4 (U87.CXCR4 cells) was at least 1000 nM. The IC50 in data set [1] lay in the range of 100 to 1000 nM. For the same molecule, in “in vitro”, the Papp A→B at 90 min, 10 μM lay in the range of 0.1 to 10 ×10⁻⁶ cm/s; the Papp B→A at 90 min, 10 μM is 10 to 30 ×10⁻⁶ cm/s; the efflux ratio at 90 min, 10 μM fell in the range of 0.1 to 10.

Consider `Cc1cccnc1C1CCCN1Cc1nccn1CC1CCN(C)CC1` (centres unmarked) [Compound I-52], for which, on CXCR4 (U87.CXCR4 cells), the IC50 was in the range of 0.01 to 100 nM. For the same molecule, the IC50 in data set [1] was in the range of 0.01 to 100 nM. Also, in the data set “in vitro”, the Papp A→B at 90 min, 10 μM fell in the range of 0.1 to 10 ×10⁻⁶ cm/s; the Papp B→A at 90 min, 10 μM fell in the range of 10 to 30 ×10⁻⁶ cm/s; the efflux ratio at 90 min, 10 μM lay within 0.1 to 10.

As to `Cc1cccnc1C1CCCN1Cc1ncccc1N1CCN(C)CC1` (centres unmarked) [Compound I-53], the IC50 at CXCR4 (U87.CXCR4 cells) is at least 1000 nM. Also, the IC50 in data set [1] lay in the range of 0.01 to 100 nM. For the same molecule, in the data set “in vitro”, the apical-to-basolateral permeability (Papp A→B) at 90 min, 10 μM lay in the range of 0.1 to 10 ×10⁻⁶ cm/s; the apparent permeability from basolateral to apical (Papp B→A) at 90 min, 10 μM fell in the range of 10 to 30 ×10⁻⁶ cm/s; the efflux ratio at 90 min, 10 μM was in the range of 0.1 to 10.

Regarding `CN1CCC(n2c(CN3CCCC3c3ccccn3)nc3ccccc32)CC1` (centres unmarked) [Compound I-54], at CXCR4 (U87.CXCR4 cells), the IC50 was in the range of 100 to 1000 nM. Further, the IC50 in data set [1] is 0.01 to 100 nM. In “in vitro”, the Papp A→B at 90 min, 10 μM fell in the range of 10 to 30 ×10⁻⁶ cm/s; the Papp B→A at 90 min, 10 μM lay within 10 to 30 ×10⁻⁶ cm/s; the efflux ratio at 90 min, 10 μM is 0.1 to 10.

For `CN1CCC(n2ccnc2CN2CCCC2c2ccccn2)CC1` (centres unmarked) [Compound I-55], the IC50 on CXCR4 (U87.CXCR4 cells) was at least 1000 nM. Further, the IC50 in data set [1] lay within 100 to 1000 nM. Also, in the data set “in vitro”, the apical-to-basolateral permeability (Papp A→B) at 90 min, 10 μM was in the range of 0.1 to 10 ×10⁻⁶ cm/s; the Papp B→A at 90 min, 10 μM lay in the range of 10 to 30 ×10⁻⁶ cm/s; the efflux ratio at 90 min, 10 μM was 0.1 to 10.

As for `CN1CCN(c2cccnc2CN2CCCC2c2ccccn2)CC1` (centres unmarked) [Compound I-56], on CXCR4 (U87.CXCR4 cells), the IC50 was at least 1000 nM. The IC50 in data set [1] lay within 100 to 1000 nM. In “in vitro”, the Papp A→B at 90 min, 10 μM was in the range of 10 to 30 ×10⁻⁶ cm/s; the Papp B→A at 90 min, 10 μM fell in the range of 10 to 30 ×10⁻⁶ cm/s; the efflux ratio at 90 min, 10 μM lay within 0.1 to 10.

With `c1ccc(C2CCCN2Cc2nc3ccccn3c2N2CCN(C3CC3)CC2)nc1` (centres unmarked) [Compound I-57], the IC50 at CXCR4 (U87.CXCR4 cells) is 100 to 1000 nM. Moreover, the IC50 in data set [1] is 0.01 to 100 nM. Further, in the data set “in vitro”, the Papp A→B at 90 min, 10 μM is 10 to 30 ×10⁻⁶ cm/s; the Papp B→A at 90 min, 10 μM was 10 to 30 ×10⁻⁶ cm/s; the efflux ratio at 90 min, 10 μM lay within 0.1 to 10.
